For the assay, the target named is ATX (human His-tagged) (Homo sapiens (Human), UniProt Q13822). Put plainly: Human ATX enzyme inhibition assay (fluorescence quenching, MR121 substrate). The class given is biochemical. The settings on record: 30 nM ATX, 1 μM MR121 substrate, 30° C., pH 8.0. Here is the method: Human ATX Enzyme Inhibition Assay
ATX inhibition was measured by a fluorescence quenching assay using a specifically labeled substrate analogue (MR121 substrate). To obtain this MR121 substrate, BOC and TBS protected 6-amino-hexanoic acid (R)-3-({2-[3-(2-{2-[2-(2-amino-ethoxy)-ethoxy]-ethoxy}-ethoxy)-propionylamino]-ethoxy}-hydroxy-phosphoryloxy)-2-hydroxy-propyl ester (Ferguson et al., Org Lett 2006, 8 (10), 2023) was labeled with MR121 fluorophore (CAS 185308-24-1, 1-(3-carboxypropyl)-11-ethyl-1,2,3,4,8,9,10,11-octahydro-dipyrido[3,2-b:2′,3′-i]phenoxazin-13-ium) on the free amine of the ethanolamine side and then, after deprotection, subsequently with tryptophan on the side of the aminohexanoic acid.
Assay working solutions were made as follows:
Assay buffer (50 mM Tris-HCl, 140 mM NaCl, 5 mM KCl, 1 mM CaCl2, 1 mM MgCl2, 0.01% Triton-X-100, pH 8.0;
ATX solution: ATX (human His-tagged) stock solution (1.08 mg/mL in 20 mM bicine, pH 8.5, 0.15 M NaCl, 10% glycerol, 0.3% CHAPS, 0.02% NaN3), diluted to 1.4-2.5× final concentration in assay buffer;
MR121 substrate solution: MR121 substrate stock solution (800 μM MR121 substrate in DMSO), diluted to 2-5× final concentration in assay buffer.
Test compounds (10 mM stock in DMSO, 8 μL) were obtained in 384 well sample plates (Corning Costar #3655) and diluted with 8 μL DMSO. Row-wise serial dilutions were made by transferring 8 μL cpd solution to the next row up to row O. The compound and control solutions were mixed five times and 2 μL were transferred to 384 well assay plates (Corning Costar #3702). Then, 15 μL of 41.7 nM ATX solution was added (30 nM final concentration), mixed five times and then incubated for 15 minutes at 30° C. 10 μL of MR121 substrate solution was added (1 μM final concentration), mixed 30 times and then incubated for 15 minutes at 30′C.
`O=C(c1ccc2[nH]nnc2c1)N1C[C@@H]2[C@H](C1)[C@H]1CN(C(=O)C3CCc4ccccc4O3)C[C@@H]21` (stereo partly drawn) [Example 1.042, [(3aR,3bS,6aR,6bS)-5-(1H-benzotriazole-5-carbonyl)-octahydro-cyclobuta[1,2-c;3,4-c′]dipyrrol-2-yl]-chroman-2-yl-methanone]: the IC50 (in general, the concentration at which inhibition is half-maximal) is 0.632 µM. Under `O=C(c1ccc2[nH]ccc2c1)N1C[C@@H]2[C@H](C1)[C@H]1CN(C(=O)c3ccc4[nH]nnc4c3)C[C@@H]21` [Example 1.043, [(3aS,3bS,6aR,6bR)-5-(1H-benzotriazole-5-carbonyl)-octahydro-cyclobuta[1,2-c;3,4-c′]dipyrrol-2-yl]-(1H-indol-5-yl)-methanone] stands 1.41 µM; under `COc1cc(C(=O)N2C[C@@H]3[C@H](C2)[C@H]2CN(C(=O)[C@@H]4CCc5[nH]nnc5C4)C[C@@H]32)cc2ccccc12` [Example 1.044, (4-methoxy-naphthalen-2-yl)-[(3aR,3bS,6aR,6bS)-5-((R)-4,5,6,7-tetrahydro-1H-benzotriazole-5-carbonyl)-octahydro-cyclobuta[1,2-c;3,4-c′]dipyrrol-2-yl]-methanone], 0.013 µM; under `O=C(c1ccc(-c2ccc(Cl)cc2)nc1)N1C[C@@H]2[C@H](C1)[C@H]1CN(C(=O)c3ccc4[nH]nnc4c3)C[C@@H]21` [Example 1.045, [(3aS,3bS,6aR,6bR)-5-(1H-benzotriazole-5-carbonyl)-octahydro-cyclobuta[1,2-c;3,4-c′]dipyrrol-2-yl]-[6-(4-chloro-phenyl)-pyridin-3-yl]-methanone], 0.011 µM. Under `COc1nc(C(=O)N2C[C@@H]3[C@H]4CN(C(=O)c5ccc6[nH]nnc6c5)C[C@H]4[C@@H]3C2)cc2ccccc12` [Example 1.046, [(3aR,3bS,6aR,6bS)-5-(1H-benzotriazole-5-carbonyl)-octahydro-cyclobuta[1,2-c;3,4-c′]dipyrrol-2-yl]-(1-methoxy-isoquinolin-3-yl)-methanone] stands 0.028 µM; under `Cc1cc(C(=O)N2C[C@@H]3[C@H]4CN(C(=O)c5ccc6[nH]nnc6c5)C[C@H]4[C@@H]3C2)nc2ccccc12` [Example 1.047, [(3aR,3bS,6aR,6bS)-5-(1H-benzotriazole-5-carbonyl)-octahydro-cyclobuta[1,2-c;3,4-c′]dipyrrol-2-yl]-(4-methyl-quinolin-2-yl)-methanone], 0.205 µM. Molecule `O=C(c1ccc2[nH]nnc2c1)N1C[C@@H]2[C@H](C1)[C@H]1CN(C(=O)c3cc4cc(Cl)ccc4[nH]3)C[C@@H]21` [Example 1.048, [(3aR,3bS,6aR,6bS)-5-(1H-benzotriazole-5-carbonyl)-octahydro-cyclobuta[1,2-c;3,4-c′]dipyrrol-2-yl]-(5-chloro-1H-indol-2-yl)-methanone] had a half-inhibitory concentration (IC50) of 0.208 µM. Under `COCCOc1cc(C(=O)N2C[C@@H]3[C@H](C2)[C@H]2CN(C(=O)c4ccc5[nH]nnc5c4)C[C@@H]32)cc2ccccc12` [Example 1.049, [(3aS,3bS,6aR,6bR)-5-(1H-benzotriazole-5-carbonyl)-octahydro-cyclobuta[1,2-c;3,4-c′]dipyrrol-2-yl]-[4-(2-methoxy-ethoxy)-naphthalen-2-yl]-methanone] stands 0.004 µM; under `O=C(c1ccc2ccc(-c3ccccc3)cc2c1)N1C[C@@H]2[C@H](C1)[C@H]1CN(C(=O)c3ccc4[nH]nnc4c3)C[C@@H]21` [Example 1.050, [(3aS,3bS,6aR,6bR)-5-(1H-benzotriazole-5-carbonyl)-octahydro-cyclobuta[1,2-c;3,4-c′]dipyrrol-2-yl]-(7-phenyl-naphthalen-2-yl)-methanone], 0.008 µM. Take `CCOc1cc(C(=O)N2C[C@@H]3[C@H](C2)[C@H]2CN(C(=O)c4ccc5[nH]nnc5c4)C[C@@H]32)cc2ccccc12` [Example 1.051, [(3aS,3bS,6aR,6bR)-5-(1H-benzotriazole-5-carbonyl)-octahydro-cyclobuta[1,2-c;3,4-c′]dipyrrol-2-yl]-(4-ethoxy-naphthalen-2-yl)-methanone]: the half-maximal inhibitory concentration (IC50) was determined as 0.007 µM. In the case of `CC(C)Oc1cc(C(=O)N2C[C@@H]3[C@H](C2)[C@H]2CN(C(=O)c4ccc5[nH]nnc5c4)C[C@@H]32)cc2ccccc12` [Example 1.052, [(3aS,3bS,6aR,6bR)-5-(1H-benzotriazole-5-carbonyl)-octahydro-cyclobuta[1,2-c;3,4-c′]dipyrrol-2-yl]-(4-isopropoxy-naphthalen-2-yl)-methanone], the concentration for half-maximal inhibition (IC50) was 0.0035 µM.

Turning to `O=C(c1ccc2[nH]nnc2c1)N1C[C@@H]2[C@H](C1)[C@H]1CN(C(=O)c3cc(OCc4ccccc4)c4cc[nH]c4c3)C[C@@H]21` [Example 1.053, [(3aS,3bS,6aR,6bR)-5-(1H-benzotriazole-5-carbonyl)-octahydro-cyclobuta[1,2-c;3,4-c′]dipyrrol-2-yl]-(4-benzyloxy-1H-indol-6-yl)-methanone], 0.014 µM corresponded to half-maximal inhibition (IC50). The figure for `O=C(c1ccc2c(c1)CCCC2)N1C[C@@H]2[C@H](C1)[C@H]1CN(C(=O)c3ccc4[nH]nnc4c3)C[C@@H]21` [Example 1.054, [(3aS,3bS,6aR,6bR)-5-(1H-benzotriazole-5-carbonyl)-octahydro-cyclobuta[1,2-c;3,4-c′]dipyrrol-2-yl]-(5,6,7,8-tetrahydro-naphthalen-2-yl)-methanone] is 0.0592 µM; for `CC1(C)CC(C(=O)N2C[C@@H]3[C@H]4CN(C(=O)c5ccc6[nH]nnc6c5)C[C@H]4[C@@H]3C2)Cc2ccccc21` (stereo partly drawn) [Example 1.055, [(3aS,3bR,6aS,6bR)-5-(1H-benzotriazole-5-carbonyl)-octahydro-cyclobuta[1,2-c;3,4-c′]dipyrrol-2-yl]-(4,4-dimethyl-1,2,3,4-tetrahydro-naphthalen-2-yl)-methanone] it is 0.022 µM; for `COCCCN1CC(C(=O)N2C[C@@H]3[C@H]4CN(C(=O)c5ccc6[nH]nnc6c5)C[C@H]4[C@@H]3C2)Cc2ccccc21` (stereo partly drawn) [Example 1.056, [(3aS,3bR,6aS,6bR)-5-(1H-benzotriazole-5-carbonyl)-octahydro-cyclobuta[1,2-c;3,4-c′]dipyrrol-2-ylH1-(3-methoxy-propyl)-1,2,3,4-tetrahydro-quinolin-3-yl]-methanone] it is 0.029 µM. The molecule `COCCOc1nc(C(=O)N2C[C@@H]3[C@H]4CN(C(=O)c5ccc6[nH]nnc6c5)C[C@H]4[C@@H]3C2)cc2ccccc12` [Example 1.057, [(3aR,3bS,6aR,6bS)-5-(1H-benzotriazole-5-carbonyl)-octahydro-cyclobuta[1,2-c;3,4-c′]dipyrrol-2-yl]-[1-(2-methoxy-ethoxy)-isoquinoline-3-yl]-methanone] registered a half-maximal inhibitory concentration (IC50) of 0.0077 µM. Consider `O=C(c1ccc2[nH]nnc2c1)N1C[C@@H]2[C@H](C1)[C@H]1CN(C(=O)c3cc4ccccc4c(OCC4CC4)n3)C[C@@H]21` [Example 1.058, [(3aR,3bS,6aR,6bS)-5-(1H-benzotriazole-5-carbonyl)-octahydro-cyclobuta[1,2-c;3,4-c′]dipyrrol-2-yl]-(1-cyclopropylmethoxy-isoquinolin-3-yl)-methanone], for which the midpoint of inhibition, the IC50, lay at 0.0053 µM. In the case of `CC(C)Oc1cc(C(=O)N2C[C@@H]3[C@H](C2)[C@H]2CN(C(=O)[C@@H]4CCc5[nH]nnc5C4)C[C@@H]32)cc2ccccc12` [Example 1.059, (4-isopropoxy-naphthalen-2-yl)-[(3aR,3bS,6aR,6bS)-5-((R)-4,5,6,7-tetrahydro-1H-benzotriazole-5-carbonyl)-octahydro-cyclobuta[1,2-c;3,4-c′]dipyrrol-2-yl]-methanone], inhibition was half-maximal at 0.0013 µM (IC50). For the molecule `O=C(c1ccc2[nH]nnc2c1)N1C[C@@H]2[C@H](C1)[C@H]1CN(C(=O)c3cc4ccccc4c(OCC(F)(F)F)n3)C[C@@H]21` [Example 1.060, [(3aR,3bS,6aR,6bS)-5-(1H-benzotriazole-5-carbonyl)-octahydro-cyclobuta[1,2-c;3,4-c′]dipyrrol-2-yl]-[1-(2,2,2-trifluoro-ethoxy)-isoquinolin-3-yl]-methanone], the half-inhibitory concentration (IC50) worked out at 0.0047 µM.

In turn, `CC(C)Oc1cc(C(=O)N2C[C@@H]3[C@H]4CN(C(=O)c5ccc6[nH]nnc6c5)C[C@H]4[C@@H]3C2)cc2[nH]ccc12` [Example 1.061, [(3aS,3bS,6aR,6bR)-5-(1H-benzotriazole-5-carbonyl)-octahydro-cyclobuta[1,2-c;3,4-c′]dipyrrol-2-yl]-(4-isopropoxy-1H-indol-6-yl)-methanone] came in with an IC50 of 0.0405 µM.

Values taken from patent publication US10849881B2, “Octahydro-cyclobuta[1,2-c;3,4-c′]dipyrrol-2-yl” (Hoffmann-La Roche Inc., priority 2013, dated 2020).
